This is an account of results in patent publication US20170101431A1, “NUCLEOSIDE DERIVATIVES FOR THE TREATMENT OF CANCER” (IDENIX PHARMACEUTICALS LLC, priority 2014, published 2017).

By pEC50 is commonly meant the negative decadic logarithm of the EC50, by convention in mol/L. Usually Emax stands for the maximal effect, on the per cent scale that the assay sets.

For this experiment, the system named is AML samples (live leukemic cells from bone marrow or peripheral blood of patients). As to the kind of experiment: Ex-vivo effect on AML patient samples (depletion of live leukemic cells, flow cytometry, Annexin V). The class given is cell-based, human. How it is done:
Patient samples were obtained from a non-interventional and prospective study. The study included samples from adult patients over 18 years of age who were diagnosed with Acute Myeloid Leukemia (AML).
In one embodiment, the method of data acquisition was performed as follows: on day 1 bone marrow (BM) or peripheral blood (PB) patient sample was received. A small part was separated from the rest of the sample for validation, while the majority of the sample was diluted with culture media and plated into 96-well plates previously prepared with the desired compounds and compound combinations, e.g., a compound or compound combination described herein. The number of live leukemic cells seeded in each well was fixed between 8000 and 32000, depending on the percentage of leukemic cells for each sample. […] Antibodies were added to identify leukemic cells using a gating strategy based on FSC/SSC and expression or lack of expression of different surface markers. The monoclonal antibodies selection was performed to optimize the identification of leukemic cell in each sample.
In one embodiment, non-limiting examples of biomarkers such as the biomarkers CD34, CD45, CD117, and HLADR known as “backbone markers” for AML (van Dongen, J. J. and A. Orfao, EuroFlow: Resetting leukemia and lymphoma immunophenotyping. Basis for companion diagnostics and personalized medicine, Leukemia, 2012, 26, 1899-907) were included in the combination.
In one embodiment, antibody combinations such as CD117/CD45, CD34/CD45, and HLADR/CD45 were used. Live leukemic cells were identified by their light scatter properties (FSC^int/hi/SSC^int) in the absence of Annexin-V-FITC staining. FSC/SSC selection was performed to exclude debris. The average percentage of cell viability upon receipt of the sample was 80% and samples were only processed if the viability was greater than 50%.
In one embodiment, sample validation was performed as follows: BM and PB samples were extracted under sterile conditions and received in the laboratory within 24 hours of extraction. Initial analysis evaluated the number of pathological cells and their viability. Different volumes of sample (1 μL, 3 μL, 5 μL and 7 μL) were aliquoted in duplicate into a 96-well plate. To lyse red blood cells, 180 μL of ammonium chloride lysis solution was added to each well (2 g KHCO3, 16.58 g NH4Cl, 0.074 g Na2EDTA2.H2O, H2O to […]). Following a 10 min incubation period at 4° C., plate was centrifuged for 5 min at 1200 rpm and the supernatant removed. The lysis step was performed twice. To analyze, 20 μL of a combination of Annexin V-FITC (Immunostep, Salamanca, Spain), binding buffer (BB, 2.4 g HEPES, 8.19 g NaCl, 0.37 g Cl2Ca, H2O to […]), and the following monoclonal antibodies (mAb) were added to each well: CD117 (clone 104D2)-PE (Becton Dickinson, San Jose, Calif., US), CD34 (clone 581)-PerCP (BioLegend, San Diego, Calif., US), HLADR (clone L243)-PB (BioLegend) and CD45 (HI30)-PO (Life Technologies, Carlsbad, Calif., US) (van Dongen, J. J., et al., EuroFlow antibody panels for standardized n-dimensional flow cytometric immunophenotyping of normal, reactive and malignant leukocytes, Leukemia, 2012, 26, 1908-75). After 15 min of incubation at room temperature in the dark, a wash step was performed using binding buffer solution. The pellet was resuspended in 30 μL BB for analysis in Vivia's ExviTech© platform. Cell count and viability upon arrival were computed and the optimal volume of sample to use per well was determined.
In one embodiment, the assay was performed according to following method: the whole sample was diluted with RPMI 1640, supplemented with 20% (v/v) FBS (Thermo Scientific, Waltham, Mass., US), 2% HEPES, 1% antibiotic (Zell Shield, Labclinics, Barcelona, Spain) and 1% L-glutamine 200 mM (Lonza, Hopkinton, Mass., US) to a final volume of 60 μL per well. […]
In general terms: In flow cytometry, cells or beads pass a laser one at a time.

Setting [1] is: Homo sapiens, 48 h, plates incubated for 48 hours.
[2] abbreviates: Homo sapiens, 48 h, plates incubated for 48 hours, read-out: Emax.
[3] abbreviates: Homo sapiens, 72 h, plates incubated for 72 hours.
[4] abbreviates: Homo sapiens, 72 h, plates incubated for 72 hours, read-out: Emax.

pEC50: −log10 of the molar value. Where two headings read alike, the source gives them in different places. A value given as a limit tells only on which side of the number the result lay.

As for `Nc1nc(F)nc2c1ncn2[C@@H]1O[C@H](COP(=O)(O)NCc2ccccc2)[C@@H](O)[C@@H]1O`, under setting [1], the pEC50 is 5.00 to 6.00. In addition, the Emax under setting [2] lay within 0 to 10%. Consider `Cn1c(COP(=O)(NCc2ccccc2)OC[C@H]2O[C@@H](n3ccc(N)nc3=O)C(O)C2O)cnc1[N+](=O)[O-]` (single isomer, unassigned) [drawing 667], for which the pEC50 (plates incubated for 72 hours) was 5.00 to 6.00. Consider `Cn1c(COP(=O)(NCc2ccccc2)OC[C@H]2O[C@@H](n3ccc(N)nc3=O)C(O)C2O)cnc1[N+](=O)[O-]` (single isomer, unassigned) [drawing 666], for which the pEC50 under setting [3] is 5.00 to 6.00. In addition, the Emax under setting [4] was in the range of 0 to 10%. Turning to `CCOC(=O)[C@H](CC(C)C)NP(=O)(O)OC[C@H]1O[C@@H](N2C=NC3C(N)=NC(F)=NC32)[C@@H](O)[C@@H]1O` (some centres unmarked), the pEC50 under setting [1] is 4.70 to 5.00. Further, under setting [2], the maximal effect (Emax) is above 20%. For `COC(=O)COP(=O)(N[C@@H](CC(C)C)C(=O)OC)OC[C@H]1O[C@@H](n2cnc3c(N)nc(Cl)nc32)C(F)C1O` (single isomer, unassigned) [drawing 660], under “plates incubated for 72 hours”, the pEC50 was 5.00 to 6.00 and the Emax entry is “B (B=10-20%)”. Take `CCOC(=O)[C@H](CC(C)C)NP(=O)(OCC(=O)OC)OC[C@H]1O[C@@H](n2ccc(N)nc2=O)C(O)C1O` (single isomer, unassigned) [drawing 664]: under setting [3], the negative logarithm of the EC50 (pEC50) is 5.00 to 6.00. Under setting [4], the Emax is 0 to 10%. In the case of `COC(=O)COP(=O)(N[C@@H](CC(C)C)C(=O)OC)OC[C@H]1O[C@@H](n2ccc(N)nc2=O)C(O)C1O` (single isomer, unassigned) [drawing 663], where the note is “plates incubated for 72 hours”, the pEC50 was 4.70 to 5.00 and the Emax result is reported as “A (A=0-10%)”.

As to `CCOC(=O)C(C)NP1(=O)OCC2O[C@@H](n3cnc4c(N)nc(Cl)nc43)[C@@H](F)[C@@H]2O1` (single isomer, unassigned) [drawing 653], where the note is “plates incubated for 72 hours”, the negative logarithm of the EC50 (pEC50) is at least 6.00 and the Emax entry is recorded as “A (A=0-10%)”.

For `CCCCCCCC/C=C/CCCCCCCC(=O)Nc1ccn([C@@H]2O[C@H](COP(=O)(N[C@@H](CC(C)C)C(=O)OC)N[C@@H](CC(C)C)C(=O)OC)C(O)C2O)c(=O)n1` (some centres unmarked), under setting [3], the pEC50 was 4.70 to 5.00. Under setting [4], the Emax was above 20%. For `CC(C)(CO)C(=O)SCCOP(=O)(NCc1ccccc1)OC[C@H]1O[C@@H](n2cnc3c(N)nc(Cl)nc32)C(F)C1O` (single isomer, unassigned) [drawing 657], in that order: at least 6.00 and 10 to 20%. Regarding `CC(C)(O)C(=O)SCCOP(=O)(OCCSC(=O)C(C)(C)CO)OC[C@H]1O[C@@H](N2C=NC3C(N)=NC(Cl)=NC32)[C@@H](F)[C@@H]1O` (some centres unmarked), the pEC50 under setting [3] is 5.00 to 6.00. Further, the Emax under setting [4] is 10 to 20%. Take `CCOC(=O)[C@H](CC(C)C)NP(=O)(OCC(=O)OC)OC[C@H]1O[C@@H](n2ccc(N)nc2=O)C(O)C1O` (single isomer, unassigned) [drawing 665]: the pEC50 (plates incubated for 72 hours) is 5.00 to 6.00. Consider `CC(C)OP1(=O)OC[C@H]2O[C@@H](N3C=NC4C(N)=NC(F)=NC43)[C@@H](O)[C@@H]2O1` (single isomer, unassigned) [drawing 676], for which, for the setting “plates incubated for 48 hours”, the pEC50 is at most 4.70 and the maximum response (Emax) entry is given as “C (C>20%)”. As for `COC(=O)COP(=O)(N[C@@H](CC(C)C)C(=O)OC)OC[C@H]1O[C@@H](n2ccc(N)nc2=O)C(O)C1O` (single isomer, unassigned) [drawing 662], where the note is “plates incubated for 72 hours”, the pEC50 was 5.00 to 6.00 and the Emax result is listed as “B (B=10-20%)”. Regarding `CC(C)OC(=O)[C@H](C)NP(=O)(OC[C@H]1O[C@@H](n2cnc3c(N)nc(F)nc32)[C@@H](O)[C@@H]1O)Oc1ccccc1` (some centres unmarked), the pEC50 (Homo sapiens, plates incubated for 48 hours) was at most 4.70. The Emax (Homo sapiens, plates incubated for 48 hours, read-out: Emax) lay within 0 to 10%. For the compound `CCOC(=O)[C@H](CC(C)C)NP1(=O)OC[C@H]2O[C@@H](n3cnc4c(N)nc(F)nc43)[C@@H](O)[C@@H]2O1` (single isomer, unassigned) [drawing 672], under setting [1], the pEC50 is 4.70 to 5.00. Also, the maximal response (Emax) result (plates incubated for 48 hours) was “C (C>20%)”. `COC(=O)COP(=O)(NC(CC(C)C)C(=O)OC)OC[C@H]1O[C@@H](n2cnc3c(N)nc(F)nc32)[C@@H](O)[C@@H]1O` (some centres unmarked): the pEC50 under setting [1] was 5.00 to 6.00. The Emax under setting [2] is 0 to 10%.
